# Assay results published in US7956069B2, “Compounds” (AstraZeneca AB, priority 2006, dated 2011).
# Molecular target: T1, cloned human M4 receptor (Homo sapiens, UniProt P08173)
# T1 construct: purchased Perkin-Elmer RBHM4M; host or cells: Chinese hamster ovary cells (CHO)
# T1 sequence (P08173 1-479): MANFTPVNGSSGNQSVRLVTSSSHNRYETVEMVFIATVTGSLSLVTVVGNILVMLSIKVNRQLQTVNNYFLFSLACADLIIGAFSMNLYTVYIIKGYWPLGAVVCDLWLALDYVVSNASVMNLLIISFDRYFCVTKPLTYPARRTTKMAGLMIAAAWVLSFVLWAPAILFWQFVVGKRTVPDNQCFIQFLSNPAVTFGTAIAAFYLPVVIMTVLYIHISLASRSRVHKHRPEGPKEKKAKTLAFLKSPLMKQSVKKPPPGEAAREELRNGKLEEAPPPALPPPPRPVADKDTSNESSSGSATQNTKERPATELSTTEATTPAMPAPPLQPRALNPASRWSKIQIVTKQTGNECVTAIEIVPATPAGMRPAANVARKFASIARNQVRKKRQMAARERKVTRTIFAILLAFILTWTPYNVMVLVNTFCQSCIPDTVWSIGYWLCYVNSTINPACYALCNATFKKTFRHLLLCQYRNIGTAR
# Test: hM4 receptor GTPγS binding
# Format: biochemical
# Conditions: CHO membranes, [35S]GTPγS binding
# Method: HM4 Receptor GTPγS Binding
# Membranes produced from Chinese hamster ovary cells (CHO) expressing the cloned human M4 receptor (human Muscarinic receptor subtype 4, gene bank access NM_000741), were obtained from Perkin-Elmer (RBHM4M). The membranes were thawed at 37° C., passed 3 times through a 23-gauge blunt-end needle, diluted in the GTPγS binding buffer (50 mM Hepes, 20 mM NaOH, 100 mM NaCl, 1 mM EDTA, 5 mM MgCl2, pH 7.4, 100 μM DTT). The EC50, IC50 and Emax of the compounds of the invention were evaluated from 10-point dose-response curves (three fold concentration range) done in 60 μl in 384-well non-specific binding surface plate (Corning). Ten microliters from the dose-response curves plate (5× concentration) were transferred to another 384 well plate containing the following: 10 μg of hM4 membranes, 500 μg of Flashblue beads (Perkin-Elmer) and GDP in a 25 μl volume. An additional 15 μl containing 3.3× (55000 dpm) of GTPγ^35S (0.4 nM final) were added to the wells resulting in a total well volume of 50 μl. Basal and maximal stimulated [^35S]GTPγS binding were determined in absence and presence of 30 μM of acetylcholine agonist. The membranes/beads mix were pre-incubated for 15 minutes at room temperature with 40 μM GDP prior to distribution in plates (20 μM final). The reversal of acetylcholine-induced stimulation (10 μM final) of [^35S]GTPγS binding was used to assay the antagonist properties (IC50) of the compounds. The plates were incubated for 60 minutes at room temperature with shaking, then centrifuged at 2000 rpm for 5 minutes. The radioactivity (cpm) were counted in a Trilux (Perkin-Elmer).
# Values of EC50, IC50 and Emax were obtained using sigmoidal fits of a non-linear curve-fitting program (XLfit version 5.0.6 from ID Business Solutions Limited, Guildford, UK) of percent stimulated [^35S]GTPγS binding vs. log(molar ligand).
# All EC50 and IC50 values are reported as arithmetic means±standard error of mean of ‘n’ independent experiments. […] The IC50 was the concentration of the compound of the invention at which 50% inhibition of acetylcholine [^35S]GTPγS binding stimulation has been observed.
row,SMILES,EC50
1,CCOC(=O)N1CC[C@H](N2CCC(N3C(=O)N[C@H]4CCCC[C@@H]43)CC2)C1,9.4 µM
2,COc1ccccc1C(=O)N1CCC(N2CCC(N3C(=O)N[C@@H]4CCCC[C@H]43)CC2)CC1,> 30 µM
3,CC(C)OC(=O)N1CCC(N2CCC(N3C(=O)N[C@H]4CCCC[C@@H]43)CC2)CC1,1.3 µM
4,CN1C(=O)N(C2CCN(C3CCN(C(=O)C4CC4)CC3)CC2)[C@H]2CCCC[C@@H]21,> 30 µM
5,CC(C)OC(=O)N1CCC(N2CCC(N3C(=O)C[C@H]4CCCC[C@@H]43)CC2)CC1,4.2 µM

# Now from value to molecule:
row,EC50,SMILES
1,0.33 µM,CCOC(=O)N1CCC(N2CCC(N3C(=O)N[C@H]4CCCC[C@@H]43)CC2)CC1
2,4.5 µM,CC(C)OC(=O)N1CCC(N2CCC(N3C(=O)N[C@@H]4CCCC[C@@H]43)CC2)CC1
3,5.1 µM,O=C1CCCN1CCC(=O)N1CCC(N2CCC(N3C(=O)N[C@H]4CCCC[C@@H]43)CC2)CC1
4,> 30 µM,O=C(C1CC1)N1CCC(N2CCC(N3C(=O)N[C@@H]4CCCC[C@H]43)CC2)CC1
5,> 30 µM,O=C1CCCN1CCC(=O)N1CCC(N2CCC(N3C(=O)N[C@@H]4CCCC[C@H]43)CC2)CC1
6,> 30 µM,O=C(C1CCCC1)N1CCC(N2CCC(N3C(=O)N[C@H]4CCCC[C@@H]43)CC2)CC1
7,1.1 µM,O=C(OCCF)N1CCC(N2CCC(N3C(=O)N[C@H]4CCCC[C@@H]43)CC2)CC1
